According to patent US12157730B2, “Heteroaryl derivative, method for producing same, and pharmaceutical composition comprising same as effective component” (VORONOI INC., priority 2019, dated 2024):

target: T1, Ba/F3 cell EGFR Exon20 ins NPH (Homo sapiens, UniProt P00533, INS773NPH); experiment: Ba/F3 cell proliferation suppression, EGFR Exon20 ins NPH; assay type: cell-based; conditions: GI50 class; Ba/F3 cell line with NPH inserted at Exon20 of EGFR; 72 hours
T1 construct: expressed in transfected cells; host or cells: Ba/F3
How it was run: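 Growth suppression determined as GI50 following 72 h exposure across 12 concentrations up to 50 um, with viability by luminescent ATP assay (CellTiter-Glo).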

How did the “Ba/F3 (NPH) Activity” value turn out when `C=CC(=O)Nc1cc(Nc2cc(N3OCC[C@@H]3c3cc(F)cc(Cl)c3)ncn2)c(OC)cc1N1CC(N2CCN(C3CC3)CC2)C1` [compound 587, N-(5-((6-((R)-3-(3-chloro-5-fluorophenyl)isoxazolidine-2-yl)pyrimidine-4-yl)amino)-2-(3-(4-cyclopropylpiperazine-1-yl)azetidine-1-yl)-4-methoxyphenyl) acrylamide] was run?
Its value is “B (50 nM ≤ GI50 < 500 nM)”.

Which “Ba/F3 (NPH) Activity” value does the source give for `C=CC(=O)Nc1cc(Nc2cc(N3OCC[C@@H]3c3cc(F)ccc3F)ncn2)c(OC)cc1N1CCC(N2CCOCC2)CC1` [compound 766, N-(5-((6-((R)-3-(2,5-difluorophenyl)isoxazolidine-2-yl)pyrimidine-4-yl)amino)-4-methoxy-2-(4-morpholinopiperidine-1-yl)phenyl)acrylamide] here?
The value was “A (GI50 < 50 nM)”.

`C=CC(=O)Nc1cc(Nc2cc(N3OCC[C@@H]3c3ccc(Cl)c(Cl)c3)ncn2)c(OC)cc1N1CCC(N2CCN(C3COC3)CC2)CC1` [compound 931, N-(5-((6-((R)-3-(3,4-dichlorophenyl)isoxazolidine-2-yl)pyrimidine-4-yl)amino)-4-methoxy-2-(4-(4-(oxetane-3-yl)piperazine-1-yl)piperidine-1-yl)phenyl) acrylamide] was tested. Which “Ba/F3 (NPH) Activity” value did it give?
The value was “A (GI50 < 50 nM)”.

`C=CC(=O)Nc1cc(Nc2cc(N3OCC[C@@H]3c3ccc(Cl)cc3F)ncn2)c(OC)cc1N1CCC(N2CC[C@H](N(C)C)C2)CC1` [compound 405, N-(5-((6-((R)-3-(4-chloro-2-fluorophenyl)isoxazolidine-2-yl)pyrimidine-4-yl)amino)-2-(4-((S)-3-(dimethylamino)pyrolidine-1-yl)piperidine-1-yl)-4-methoxyphenyl) acrylamide] was tested. Which “Ba/F3 (NPH) Activity” value did it give?
The value was “B (50 nM ≤ GI50 < 500 nM)”.

How did the “Ba/F3 (NPH) Activity” value turn out when `C=CC(=O)Nc1cc(Nc2cc(N3OCC[C@@H]3c3cc(F)cc(F)c3)ncn2)c(OC)cc1N1CCN(C)[C@H](C)C1` [compound 917, N-(5-((6-((R)-3-(3,5-difluorophenyl)isoxazolidine-2-yl)pyrimidine-4-yl)amino)-2-((R)-3,4-dimethylpiperazine-1-yl)-4-methoxyphenyl) acrylamide] was run?
Its value is “A (GI50 < 50 nM)”.

`C=CC(=O)Nc1cc(Nc2cc(N3OCC[C@@H]3c3ccc4ccccc4c3)ncn2)c(OC)cc1N1CCN(CC)CC1` [compound 514, N-(2-(4-ethylpiperazine-1-yl)-4-methoxy-5-((6-((R)-3-(naphthalene-2-yl)isoxazolidine-2-yl)pyrimidine-4-yl)amino)phenyl)acrylamide] was tested. Which “Ba/F3 (NPH) Activity” value did it give?
The value was “B (50 nM ≤ GI50 < 500 nM)”.

Which “Ba/F3 (NPH) Activity” value does the source give for `C=CC(=O)Nc1cc(Nc2cc(N3OCC[C@@H]3c3ccc(Cl)c(Cl)c3F)ncn2)c(OC)cc1N1CCC(N2C[C@H]3C[C@@H]2CO3)CC1` [Example 268, N-(2-(4-((1R,4R)-2-oxa-5-azabicyclo[2.2.1]heptane-5-yl)piperidine-1-yl)-5-((6-((R)-3-(3,4-dichloro-2-fluorophenyl)isoxazolidine-2-yl)pyrimidine-4-yl)amino)-4-methoxyphenyl) acrylamide] here?
Its value is “A (GI50 < 50 nM)”.

With `C=CC(=O)Nc1cc(Nc2cc(N3OCC[C@@H]3c3ccc(F)cc3F)ncn2)c(OC)cc1N1CCN(C2COC2)CC1` [compound 383, N-(5-((6-((R)-3-(2,4-difluorophenyl)isoxazolidine-2-yl)pyrimidine-4-yl)amino)-4-methoxy-2-(4-(oxetane-3-yl)piperazine-1-yl)phenyl)acrylamide] as the molecule, how does the “Ba/F3 (NPH) Activity” value read?
Its value is “A (GI50 < 50 nM)”.

With `C=CC(=O)Nc1cc(Nc2cc(N3OCC[C@@H]3c3ccc(Cl)cc3F)ncn2)c(OC)cc1N1CCC(N2C[C@H]3C[C@@H]2CO3)CC1` [compound 548, N-(2-(4-((1R,4R)-2-oxa-5-azabicyclo[2.2.1]heptane-5-yl)piperidine-1-yl)-5-((6-((R)-3-(4-chloro-2-fluorophenyl)isoxazolidine-2-yl)pyrimidine-4-yl)amino)-4-methoxyphenyl) acrylamide] as the molecule, how does the “Ba/F3 (NPH) Activity” value read?
The value was “A (GI50 < 50 nM)”.

How did the “Ba/F3 (NPH) Activity” value turn out when `C=CC(=O)Nc1cc(Nc2cc(N3OCC[C@@H]3c3cccc(Cl)c3Cl)ncn2)c(OC)cc1N1CCC(N2CCN(C)CC2)CC1` [compound 565, N-(5-((6-((R)-3-(2,3-dichlorophenyl)isoxazolidine-2-yl)pyrimidine-4-yl)amino)-4-methoxy-2-(4-(4-methylpiperazine-1-yl)piperidine-1-yl)phenyl) acrylamide] was run?
Its value is “A (GI50 < 50 nM)”.

Which “Ba/F3 (NPH) Activity” value does the source give for `C=CC(=O)Nc1cc(Nc2cc(N3OCC[C@@H]3c3cccc(Cl)c3F)ncn2)c(OC)cc1N1CC[C@@H](N(C)C)C1` [compound 834, N-(5-((6-((R)-3-(3-chloro-2-fluorophenyl)isoxazolidine-2-yl)pyrimidine-4-yl)amino)-2-((R)-3-(dimethylamino)pyrolidine-1-yl)-4-methoxyphenyl) acrylamide] here?
The value was “A (GI50 < 50 nM)”.

With `C=CC(=O)Nc1cc(Nc2cc(N3OCC[C@H]3Cc3ccccc3)ncn2)c(OC)cc1N1CCN(CCN(C)C)CC1` [compound 976, N-(5-((6-((R)-3-benzylisoxazolidine-2-yl)pyrimidine-4-yl)amino)-2-(4-(2-(dimethylamino)ethyl)piperazine-1-yl)-4-methoxyphenyl) acrylamide] as the molecule, how does the “Ba/F3 (NPH) Activity” value read?
The value was “C (500 nM ≤ GI50 < 5000 nM)”.

For `C=CC(=O)Nc1cc(Nc2cc(N3OCC[C@@H]3c3ccc(F)c(Cl)c3)ncn2)c(OC)cc1N1CCC(N2CCN(C)CC2)CC1` [compound 719, N-(5-((6-((R)-3-(3-chloro-4-fluorophenyl)isoxazolidine-2-yl)pyrimidine-4-yl)amino)-4-methoxy-2-(4-(4-methylpiperazine-1-yl)piperidine-1-yl)phenyl) acrylamide], which “Ba/F3 (NPH) Activity” value is on record?
Its value is “A (GI50 < 50 nM)”.

`C=CC(=O)Nc1cc(Nc2cc(N3OCC[C@@H]3c3ccccc3)ncn2)c(OC)cc1N1CCC(N2C[C@H]3C[C@@H]2CN3CC)CC1` [compound 738, N-(2-(4-((1R,4R)-5-ethyl-2,5-diazabicyclo [2.2.1]heptane-2-yl)piperidine-1-yl)-4-methoxy-5-((6-((R)-3-phenylisoxazolidine-2-yl)pyrimidine-4-yl)amino)phenyl) acrylamide] was tested. Which “Ba/F3 (NPH) Activity” value did it give?
The value was “A (GI50 < 50 nM)”.

`C=CC(=O)Nc1cc(Nc2cc(N3OCC[C@@H]3c3cccc(Cl)c3Cl)ncn2)c(OC)cc1N1CCC(N(C)C)CC1` [compound 476, N-(5-((6-((R)-3-(2,3-dichlorophenyl)isoxazolidine-2-yl)pyrimidine-4-yl)amino)-2-(4-(dimethylamino)piperidine-1-yl)-4-methoxyphenyl) acrylamide] was tested. Which “Ba/F3 (NPH) Activity” value did it give?
Its value is “A (GI50 < 50 nM)”.

`C=CC(=O)Nc1cc(Nc2cc(N3OCC[C@@H]3Cc3cccc(Cl)c3Cl)ncn2)c(OC)cc1N1CC[C@@H](N(C)C)C1` [compound 984, N-(5-((6-((S)-3-(2,3-dichlorobenzyl)isoxazolidine-2-yl)pyrimidine-4-yl)amino)-2-((R)-3-(dimethylamino)pyrolidine-1-yl)-4-methoxyphenyl) acrylamide] was tested. Which “Ba/F3 (NPH) Activity” value did it give?
The value was “A (GI50 < 50 nM)”.

Which “Ba/F3 (NPH) Activity” value does the source give for `C=CC(=O)Nc1cc(Nc2cc(N3OCC[C@@H]3c3cccc(OC)c3)ncn2)c(OC)cc1N1CCC(N2CCN(CCC)CC2)CC1` [compound 549, N-(4-methoxy-5-((6-((R)-3-(3-methoxyphenyl)isoxazolidine-2-yl)pyrimidine-4-yl)amino)-2-(4-(4-propylpiperazine-1-yl)piperidine-1-yl)phenyl) acrylamide] here?
Its value is “A (GI50 < 50 nM)”.
